In ChEMBL document CHEMBL1649380, “Prediction of drug intestinal absorption by new linear and non-linear QSPR” (Eur J Med Chem, 2011):

Assay: Drug absorption in human assessed as human intestinal absorption rate
Type: ADME, tissue-based, Intestine

SMILES	log10(%HIA +10)
O=c1[nH]c2ccccc2n1C1CCN(CCCC(c2ccc(F)cc2)c2ccc(F)cc2)CC1 [PIMOZIDE]	1.903
C[C@H](CS)C(=O)N1CCC[C@H]1C(=O)O [CAPTOPRIL]	1.892
COc1cccc2c1C(=O)c1c(O)c3c(c(O)c1C2=O)C[C@@](O)(C(=O)CO)C[C@@H]3O[C@H]1C[C@H](N)[C@H](O)[C@H](C)O1 [DOXORUBICIN]	1.176
COCC(=O)O[C@]1(CCN(C)CCCc2nc3ccccc3[nH]2)CCc2cc(F)ccc2[C@@H]1C(C)C [MIBEFRADIL]	1.898
NS(=O)(=O)c1cc(C(=O)O)c(NCc2ccco2)cc1Cl [FUROSEMIDE]	1.851
O=C(N[C@H](CO)[C@H](O)c1ccc([N+](=O)[O-])cc1)C(Cl)Cl [CHLORAMPHENICOL]	2
CCOC(=O)[C@H](CCc1ccccc1)N[C@@H](C)C(=O)N1CCC[C@H]1C(=O)O.O=C(O)/C=C\C(=O)O [ENALAPRIL MALEATE]	1.881
O=C(O)c1cc(/N=N/c2ccc(O)c(C(=O)O)c2)ccc1O [OLSALAZINE]	1.09
CCN[C@@H]1C[C@H](N)[C@@H](O[C@H]2OC(CN)=CC[C@H]2N)[C@H](O)[C@H]1O[C@H]1OC[C@](C)(O)[C@H](NC)[C@H]1O [NETILMICIN]	1
OC[C@H]1O[C@@H](O[C@@H]2[C@@H](CO)O[C@](O)(CO)[C@H]2O)[C@H](O)[C@@H](O)[C@H]1O [LACTULOSE]	1.025
CC(C)NCC(O)c1cc(O)cc(O)c1 (configuration not stated) [METAPROTERENOL]	1.732
COCC1=C(C(=O)OC(C)OC(=O)OC(C)C)N2C(=O)[C@@H](NC(=O)/C(=N\OC)c3csc(N)n3)[C@H]2SC1 (some centres not stated) [CEFPODOXIME PROXETIL]	1.778
C[C@H]1[C@H](NC(=O)/C(=N\OC(C)(C)C(=O)O)c2csc(N)n2)C(=O)N1S(=O)(=O)O [AZTREONAM]	1.041
OCCN(CCO)c1nc(N2CCCCC2)c2nc(N(CCO)CCO)nc(N3CCCCC3)c2n1 [DIPYRIDAMOLE]	1.833
Nc1nc(O)c2ncn(COC(CO)CO)c2n1 [GANCICLOVIR]	1.134
O=C1NS(=O)(=O)c2ccccc21 [SACCHARIN]	1.991
CC(CCc1ccccc1)NCC(O)c1ccc(O)c(C(N)=O)c1 (configuration not stated) [LABETALOL]	2.021
CO/N=C(\C(=O)N[C@@H]1C(=O)N2C(C(=O)O)=C(CSc3nc(=O)c(=O)[nH]n3C)CS[C@H]12)c1csc(N)n1 [CEFTRIAXONE]	1.041
CC(C)NCC(O)COc1cccc2ccccc12 (configuration not stated) [PROPRANOLOL]	2.037
Cc1c(OCC(F)(F)F)ccnc1C[S+]([O-])c1nc2ccccc2[nH]1 (configuration not stated) [LANSOPRAZOLE]	1.978
CCOC(=O)[C@H](CCc1ccccc1)N[C@@H](C)C(=O)N1Cc2cc(OC)c(OC)cc2C[C@H]1C(=O)O [MOEXIPRIL]	1.176
CCCCC(=O)N(Cc1ccc(-c2ccccc2-c2nnn[nH]2)cc1)[C@H](C(=O)O)C(C)C	1.813
COc1cc(Cc2cnc(N)nc2N)cc(OC)c1OC [TRIMETHOPRIM]	2.029
CC[C@H](C)C(=O)O[C@H]1C[C@H](O)C=C2C=C[C@H](C)[C@H](CC[C@@H](O)C[C@@H](O)CC(=O)O)[C@H]21 [PRAVASTATIN]	1.643

SMILES	log10(%HIA +10)
O=C1Cc2cc(CCN3CCN(c4nsc5ccccc45)CC3)c(Cl)cc2N1 [ZIPRASIDONE]	1.845
CCN(C)C(=O)Oc1cccc([C@H](C)N(C)C)c1 [RIVASTIGMINE]	2.041
Cc1c(N(C)C)c(=O)n(-c2ccccc2)n1C [AMINOPYRINE]	2.041
CCCc1cc(=O)[nH]c(=S)[nH]1 [PROPYLTHIOURACIL]	1.929
CC(C)NCC(O)c1ccc(NS(C)(=O)=O)cc1 (configuration not stated) [SOTALOL]	2.021
CCN1CCCC1CNC(=O)c1cc(S(N)(=O)=O)ccc1OC (configuration not stated) [SULPIRIDE]	1.732
CN1CCN2c3ccccc3Cc3ccccc3C2C1 (configuration not stated) [MIANSERIN]	1.903
CCC[C@@H]1C[C@@H](C(=O)N[C@@H]([C@H]2O[C@H](SC)[C@H](O)[C@@H](O)[C@H]2O)[C@@H](C)O)N(C)C1 [LINCOMYCIN]	1.574
O=C1CN2Cc3c(ccc(Cl)c3Cl)N=C2N1 [ANAGRELIDE]	1.903
CCOC(=O)Nc1ccc2c(c1)N(C(=O)CCN1CCOCC1)c1ccccc1S2 [MORICIZINE]	1.991
O=C(O)c1cc(=O)c2c(OCC(O)COc3cccc4oc(C(=O)O)cc(=O)c34)cccc2o1 [CROMOLYN]	1.021
CO/N=C(\C(=O)N[C@@H]1C(=O)N2C(C(=O)O)=C(COC(N)=O)CS[C@H]12)c1ccco1 [CEFUROXIME]	1.176
CC(C)(C)NCC(O)c1cc(O)cc(O)c1 (configuration not stated) [TERBUTALINE]	1.857
OCCOCCN1CCN(C2=Nc3ccccc3Sc3ccccc32)CC1 [QUETIAPINE]	1.919
NS(=O)(=O)c1cc2c(cc1Cl)N=CNS2(=O)=O [CHLOROTHIAZIDE]	1.528
CC[C@H](C)C(=O)O[C@H]1C[C@@H](C)C=C2C=C[C@H](C)[C@H](CC[C@@H]3C[C@@H](O)CC(=O)O3)[C@H]21 [LOVASTATIN]	1.608
CN(C)CCc1c[nH]c2ccc(CS(=O)(=O)N3CCCC3)cc12 [ALMOTRIPTAN]	1.929
N=c1nc2n(cc1F)[C@@H]1O[C@H](CO)[C@@H](O)[C@@H]1O2 [FLUROCITABINE]	1.623
CCOC(=O)[C@H](CCc1ccccc1)N[C@@H](C)C(=O)N1[C@H](C(=O)O)C[C@@H]2CCC[C@@H]21	1.845
N[C@@H]1CON=C1O [CYCLOSERINE]	1.919
CN(C)C(=N)N=C(N)N [METFORMIN]	1.799
C[C@@H]1O[C@@H]1P(=O)(O)O [FOSFOMYCIN]	1.613
CC(=O)CC(c1ccccc1)c1c(O)c2ccccc2oc1=O (configuration not stated) [WARFARIN]	2.033
N[C@@H](C(=O)N[C@@H]1C(=O)N2C(C(=O)O)=C(CSc3c[nH]nn3)CS[C@H]12)c1ccc(O)cc1 [CEFATRIZINE]	1.934

SMILES	log10(%HIA +10)
CC(=O)N(CC(O)CO)c1c(I)c(C(=O)NCC(O)CO)c(I)c(C(=O)NCC(O)CO)c1I (configuration not stated) [IOHEXOL]	1.176
CC(C)NCC(O)COc1ccc(CCNC(=O)NC(C)C)cc1 (configuration not stated) [PAFENOLOL]	1.591
CCOC(=O)[C@H](CCc1ccccc1)N[C@@H](C)C(=O)N1[C@H](C(=O)O)C[C@H]2CCCC[C@@H]21 [TRANDOLAPRIL]	1.778
CC(C)(C)NC[C@H](O)COc1nsnc1N1CCOCC1 [TIMOLOL]	2.021
CC1(C)S[C@@H]2[C@H](NC(=O)[C@H](NC(=O)N3CCN(S(C)(=O)=O)C3=O)c3ccccc3)C(=O)N2[C@H]1C(=O)O [MEZLOCILLIN]	1
C[C@@H]1O[C@@H](O[C@H]2C[C@@H](O)[C@]3(CO)[C@H]4[C@H](O)C[C@]5(C)[C@@H](C6=CC(=O)OC6)CC[C@]5(O)[C@@H]4CC[C@]3(O)C2)[C@H](O)[C@H](O)[C@H]1O [OUABAIN]	1.057
CC(C)NCC(O)COc1ccc(CC(N)=O)cc1 (configuration not stated) [ATENOLOL]	1.785
O=C(O)c1ccccc1C(=O)Nc1ccc(S(=O)(=O)Nc2nccs2)cc1 [PHTHALYLSULFATHIAZOLE]	1.176
CCOC(=O)[C@H](CCc1ccccc1)N[C@H]1CCc2ccccc2N(CC(=O)O)C1=O [BENAZEPRIL]	1.672
CCN1CCCC1CNC(=O)c1cc(S(=O)(=O)CC)ccc1OC (configuration not stated) [SULTOPRIDE]	1.996
NCCCC(N)(C(=O)O)C(F)F (configuration not stated) [EFLORNITHINE]	1.813
CNC(=O)c1c(I)c(NC(C)=O)c(I)c(C(=O)O)c1I [IOTHALAMIC ACID]	1.076
CC1(C)S[C@@H]2[C@H](NC(=O)[C@H](C(=O)O)c3ccsc3)C(=O)N2[C@H]1C(=O)O [TICARCILLIN]	1.176
CN(Cc1cc(Br)cc(Br)c1N)C1CCCCC1 [BROMHEXINE]	1.903
NS(=O)(=O)c1cc2c(cc1Cl)NCNS2(=O)=O [HYDROCHLOROTHIAZIDE]	1.875
CN(N=O)C(=O)N[C@@H](C=O)[C@@H](O)[C@H](O)[C@H](O)CO [STREPTOZOCIN]	1
COc1ccc2c3c1O[C@H]1[C@@H](O)C=C[C@H]4[C@@H](C2)N(C)CC[C@@]341 [CODEINE]	2.021
NCC[C@H](O)C(=O)N[C@@H]1C[C@H](N)[C@@H](O[C@H]2O[C@H](CN)CC[C@H]2N)[C@H](O)[C@H]1O[C@H]1O[C@H](CO)[C@@H](O)[C@H](N)[C@H]1O [ARBEKACIN]	1
CN(C)CCCOc1nn(Cc2ccccc2)c2ccccc12 [BENZYDAMINE]	1.987
CC1(C)S[C@@H]2[C@H](NC(=O)[C@H](NC(=O)N3CCNC3=O)c3ccccc3)C(=O)N2[C@H]1C(=O)O [AZLOCILLIN]	1
Cn1c(=O)c2c(ncn2CCCNCC(O)c2cc(O)cc(O)c2)n(C)c1=O (configuration not stated) [REPROTEROL]	1.845
COc1nc(C)nc(Cl)c1N=C1NCCN1 [MOXONIDINE]	1.991
CC(C(=O)O)c1cccc(C(=O)c2ccccc2)c1 (configuration not stated) [KETOPROFEN]	2.009
COc1ccc2c(c1)c(CC(=O)O)c(C)n2C(=O)c1ccc(Cl)cc1 [INDOMETHACIN]	2.041
